Measurements reported in patent publication US20240408064A1, “RAS INHIBITORS, COMPOSITIONS AND METHODS OF USE THEREOF” (GENETOLEAD INC., priority 2021, published 2024).

Legend:
HRas^G12V [1] = target: T1, HRas^G12V (Homo sapiens (Human), UniProt P01112, G12V); experiment: 19F DLB (ligand-observed 19F NMR) score; type: binding; set-up: scale not given here
Method in brief: (§1)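 In the T2-CPMG experiment, echo spacing was 1 ms and total delays ranged over eight values from 1 to 800 ms. Both scores come from 600 MHz NMR of 50 μM HRas G12V mixed with fragment pools at 240 μM each, in phosphate buffer pH 7.4 with NaCl, MgCl2 and TCEP-d16. Ligand-observed 19F spectra were recorded with 1H decoupling, 64 scans and a 5 s relaxation delay.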

HRas^G12V [2] = target: T1, HRas^G12V; experiment: 19F T2-CPMG NMR score; type: binding
Method in brief: as §1

HRas^G12V [3] = target: T1, HRas^G12V; experiment: Overall binding/activity in the various assays (NMR consensus binding)
Protocol: Since the fragment library was curated using phosphate buffer, 25 mM sodium phosphate pH 7.4, 150 mM NaCl, 5 mM MgCl2, 1 mM TCEP-d16, 10% D2O Fresh TCEP was used for experiments. Screening was performed using ^1H-decoupled 1D ^19F experiment Bruker experiment (zgfhigqn.2) with 64 scans and a relaxation delay of 5 seconds. 50 μM HRas^G12V and 240 μM of each fragment in pools (mixtures) were used.
Hit confirmation was performed using the same ^19F experiment as the screen. Ligand-observed 1D ^1H, protein-observed 1D ^1H, ^1H T2-CPMG as well as Saturation Transfer Difference (STD) experiments were also run on the same samples. Ligand-observed 1D ^1H was run using the standard Bruker sequence with excitation sculpting (zgesgp) with a relaxation delay of 10 seconds and 16 scans per spectrum. Protein-observed 1D ^1H was performed using the same sequence with a relaxation delay of 1 second and 256 scans in order to increase the signal-to-noise of the protein resonances, while keeping the experimental time relatively short. The ^1H T2-CPMG experiment employed a modified version of the Bruker 1D ^1H zgesgp experiment with the addition of a CPMG pulse train after the first 90° excitation pulse. Total duration for each spin echo was fixed at 1 ms (τ=500 μs), while the number of echoes in the pulse train was varied according to the total time (T). The number of scans for each spectrum was 4 and eight delay times were run on each sample, ranging from 1 ms to 800 ms.
STD experiments consisted of two independent spectra with offsets of 0 ppm (on resonance) and −20 ppm (off resonance). […] 160 scans were acquired for each spectrum.
The results obtained with the compounds in the various assays described above are depicted in Table 21.
Because of its power to probe the intrinsically weak interactions (Kd) between targets and low-molecular weight fragments, NMR fragment-based lead discovery (FBLD) is a very useful biophysical method in early stage drug discovery, especially for challenging target proteins; including those with shallow binding pockets. Since FBLD screens are performed using low-molecular weight compounds (fragments) with lower structural complexity, the same chemical space can be covered using a smaller number of drug-like fragments versus use of large libraries of higher-molecular weight lead-like compounds as in high throughput screening (HTS) campaigns. Therefore, FBLD has a much higher hit rate than HTS using only several hundred to several thousand compounds in comparison with approximately 1 million compounds for HTS. Also, the small size of the compounds screened in FBLD means a better chance to fully match the interactions with small or transient pockets within the target protein, where these less tractable pockets cannot be accessed with standard classical HTS methods. […] We expect this methodology to be more advantageous than classical HTS methods for expediting the time from hit to lead (H2L) and allows for rapid access to high quality leads with lower attrition rates in subsequent lead optimization (LO) campaigns toward pre-clinical candidate selection. FBLD screening by NMR involves a “consensus binding” approach where several distinct NMR experiments (DLB, STD, CPMG) are applied along with a free-state aggregation detection method (T2-CPMG) to rank the compounds for their affinity to the receptor (HRAS in this case) whilst simultaneously monitoring the solution behavior and critical quality attributes of each compound. The latter helps to eliminate artifact binders which are highly problematic. We performed a fluorine screen involving 461 compounds that were derived from a highly curated fragment library. Moreover, two-dimensional ^15N HSQC NMR was also used to validate ligand-binding sites on the target protein. In addition, we employed protein-detected biophysical measurements were employed to determine fragment binding affinities to the target protein (Kd) by HSQC NMR. […]

T1 sequence (P01112 1-166 G12V): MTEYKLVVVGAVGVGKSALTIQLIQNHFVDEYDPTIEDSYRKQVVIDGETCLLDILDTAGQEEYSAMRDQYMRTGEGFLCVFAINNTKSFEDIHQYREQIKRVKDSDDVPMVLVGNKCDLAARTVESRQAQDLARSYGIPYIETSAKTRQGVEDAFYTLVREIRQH

| 19F DLB Score (HRas^G12V [1]) | 19F T2-CPMG Score (HRas^G12V [2]) | Binding to HRas^G12V (in words) (HRas^G12V [3]) | Structure (SMILES) |
| --- | --- | --- | --- |
| 1.35 | 4.49 | low or no binding | O=C(Cc1c[nH]c2cc(F)ccc12)N[C@@H]1CCOC1 [Compound 10071] |
| 1.56 | 2.26 | low or no binding | O=C(O)[C@@H]1CCCN(C(=O)Cc2c[nH]c3cc(F)ccc23)C1 [Compound 10149] |
| 1.22 | 2.32 | low or no binding | CN1CCC[C@H]1C(=O)NCCc1c[nH]c2cc(F)ccc12 [Compound 10036] |
| 1.15 | 2.67 | low or no binding | CN1CCC(NC(=O)Cc2c[nH]c3cc(F)ccc23)C(C(=O)O)C1 (stereo not drawn) [Compound 10118, 4-(2-(6-fluoro-1H-indol-3-yl)acetamido)-1-methylpiperidine-3-carboxylic acid] |
| 1.11 | 2.43 | low or no binding | COC(=O)C1CN(C)CCC1NC(=O)Cc1c[nH]c2cc(F)ccc12 (stereo not drawn) [Compound 10142, Methyl 4-(2-(6-fluoro-1H-indol-3-yl)acetamido)-1-methylpiperidine-3-carboxylate] |
| 1.6 | 7.14 | low or no binding | CCOC(=O)[C@H]1CN(C(=O)Cc2c[nH]c3cc(F)ccc23)CCO1 [Compound 10169] |
| 1.01 | 1.61 | low or no binding | CN1CCC[C@@H]1C(=O)NCCc1c[nH]c2cc(F)ccc12 [Compound 10028] |
| 1.29 | 2.55 | low or no binding | O=C(O)C1CN(C(=O)Cc2c[nH]c3cc(F)ccc23)C1 [Compound 10113, 1-(2-(6-fluoro-1H-indol-3-yl)acetyl) azetidine-3-carboxylic acid] |
| 1.29 | 3.24 | low or no binding | O=C(O)[C@@H]1CN(C(=O)Cc2c[nH]c3cc(F)ccc23)CCO1 [Compound 10151] |
| 1.22 | 2.95 | low or no binding | CCOC(=O)CNC(=O)Cc1c[nH]c2cc(F)ccc12 [Compound 10050] |
| 1.46 | 7.82 | low or no binding | CC(=O)N1CC[C@@H](NC(=O)Cc2c[nH]c3cc(F)ccc23)C1 [Compound 10092, (R)—N-(1-acetylpyrrolidin-3-yl)-2-(6-fluoro-1H-indol-3-yl) acetamide] |
| 1.1 | 2.82 | low or no binding | O=C(NCCc1c[nH]c2cc(F)ccc12)C1CCOC1 (stereo not drawn) [Compound 10063] |
| 1.5 | 2.37 | low or no binding | O=C(O)[C@@H]1CCCCN1C(=O)Cc1c[nH]c2cc(F)ccc12 [Compound 10123] |
| 1.46 | 5.56 | low or no binding | O=C(Cc1c[nH]c2cc(F)ccc12)N[C@H]1CCOC1 [Compound 10070] |
| 1.16 | 1.74 | low or no binding | CCN(CC)CC(=O)NCCc1c[nH]c2cc(F)ccc12 [Compound 10064] |
| 1.23 | 3.48 | low or no binding | CC(=O)N1CCC[C@@H](NC(=O)Cc2c[nH]c3cc(F)ccc23)C1 [Compound 10074] |

The next lines start with the compound.

| Structure (SMILES) | 19F DLB Score (HRas^G12V [1]) | 19F T2-CPMG Score (HRas^G12V [2]) | Binding to HRas^G12V (in words) (HRas^G12V [3]) |
| --- | --- | --- | --- |
| CCOC(=O)C[C@H]1CN(C(=O)Cc2c[nH]c3cc(F)ccc23)CCO1 [Compound 10177, Ethyl (S)-2-(4-(2-(6-fluoro-1H-indol-3-yl)acetyl)morpholin-2-yl)acetate] | 1.12 | 7.14 | low or no binding |
| O=C(Cc1c[nH]c2cc(F)ccc12)N1CCOC(c2ccccc2)C1 (stereo not drawn) [Compound 10136] | 1.55 | 6.73 | low or no binding |
| O=S(=O)(NCCc1c[nH]c2cc(F)ccc12)c1ccc(F)cc1 [Compound 10046] | 1.02 | 0.79 | low or no binding |
| CN(C)CC(=O)Nc1cccc(NC(=O)Cc2c[nH]c3cc(Cl)cc(F)c23)c1 [Compound 11072] | 0.08 | 1.02 | low or no binding |
| CN1CCN(C(=O)Cc2c[nH]c3cc(F)ccc23)[C@@H](C(=O)O)C1 [Compound 10165, (R)-1-(2-(6-fluoro-1H-indol-3-yl)acetyl)-4-methylpiperazine-2-carboxylic acid] | 1.58 | 5.28 | low or no binding |
| Fc1ccc2c(C3CCNC3)c[nH]c2c1 (stereo not drawn) [Compound 11007] | 1.76 | 6.67 | low or no binding |
| CC1CN(C(=O)Cc2cc(F)cc3[nH]ccc23)C1 [Compound 10172, 2-(6-fluoro-1H-indol-4-yl)-1-(3-methylazetidin-1-yl) ethan-1-one] | 0.93 | 0.11 | low or no binding |
| O=C(c1ccccc1)N1CCC(c2c[nH]c3cc(F)ccc23)CC1 [Compound 11025] | 1 | −2.12 | low or no binding |
| O=C(Cc1c[nH]c2ccccc12)Nc1ccc(F)cc1 [Compound 10067] | 1.2 | 2.15 | low or no binding |
| O=C(Cc1c[nH]c2cc(F)ccc12)N1CCN(C(=O)C2CCCO2)CC1 (stereo not drawn) [Compound 10170, 2-(6-fluoro-1H-indol-3-yl)-1-(4-(tetrahydrofuran-2-carbonyl)piperazin-1-yl)ethan-1-one] | 1.52 | 6.11 | low or no binding |
| CC1(C)OC(=O)C(C(c2ccccc2F)c2c[nH]c3cc(F)ccc23)C(=O)O1 (stereo not drawn) [Compound 11042] | 1.56 | 5.62 | low or no binding |
| Fc1ccc2c(CCNCCc3c[nH]c4cc(F)ccc34)c[nH]c2c1 [Compound 10047, Bis(2-(6-fluoro-1H-indol-3-yl)ethyl)amine] | 1.19 | 3.38 | low or no binding |
| COC(=O)[C@@H]1CN(C(=O)Cc2c[nH]c3cc(F)ccc23)CCN1C [Compound 10163] | 1.61 | 7.3 | low or no binding |
| CN(C)Cc1c[nH]c2ccc(F)cc12 [FS-1254, reference compound] | 1.15 | 0.74 | low or no binding |
| CCOC(=O)c1ccc(NC(=O)Cc2c[nH]c3cc(F)ccc23)c(C)c1 [Compound 10034] | 1.6 | −8.2 | low or no binding |
